Values after ≈ are worked out from the molar mass of the structure shown. Where two headings read alike, the source gives them in different places.
Legend:
Format in all cases: cell-based
Streptococcus pneumoniae [1] = test: MIC by NCCLS broth microdilution, 1100 Japanese clinical isolates 1997-1998; details: for MIC50 / MIC90 / MIC: Streptococcus pneumoniae; for MIC50: read-out: MIC50; for MIC90: read-out: MIC90; for MIC: Streptococcus pneumoniae quinolone resistant
Enterobacter cloacae = test: as above; details: Enterobacter cloacae (n=40)
[2] = tested on: Mycobacterium tuberculosis (MTB); test: MIC by proportions method (NCCLS M24-T, 1995), 82 MTB strains; details: Mycobacterium tuberculosis; 82 MTB strains
Haemophilus influenzae [3] = test: MIC by broth microdilution (NCCLS), dried MicroScan panels, clinical isolates 1998-1999; details: for MIC90: Haemophilus influenzae
Shigella spp. = test: MIC by agar dilution (NCCLS M7-A4), 288 enteropathogenic isolates, gemifloxacin and 15 other antimicrobials; details: Shigella spp. N= 21
Method in brief: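 Agar dilution with ~10^4 cfu/spot inoculum; plates incubated aerobically at 35 °C for 24 h, except C. jejuni, held microaerophilically for 48 h. MIC taken as lowest antibiotic concentration with no visible growth.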

P. aeruginosa = test: MIC by two-fold serial agar dilution, quinolone-resistant strains; details: Pseudomonas aeruginosa
Salmonella spp. [4] = test: MIC by NCCLS broth microdilution, 1100 Japanese clinical isolates 1997-1998; details: Salmonella spp. (n=29)
Enterococcus faecalis = test: MIC by agar dilution (NCCLS), 411 isolates Buenos Aires 1998-99; details: Enterococcus faecalis (n = 48)
Haemophilus influenzae [5] = test: MIC by NCCLS reference broth microdilution, 450 respiratory tract pathogens; details: Haemophilus influenzae; for MIC90: read-out: MIC90
Streptococcus pneumoniae [6] = test: as above; details: Streptococcus pneumoniae
Salmonella spp. [7] = test: MIC by agar dilution (NCCLS M7-A4), 288 enteropathogenic isolates, eight quinolones; details: for MIC: ciprofloxacin MIC ≥[…], read-out: MIC
Moraxella catarrhalis = test: MIC by NCCLS reference broth microdilution, 450 respiratory tract pathogens
[8] = Streptococcus pneumoniae amoxicillin resistant (n=40)
[9] = Streptococcus pneumoniae amoxicillin susceptible (n=35)
[10] = Streptococcus pneumoniae erythromycin resistant (n=34)
[11] = Streptococcus pneumoniae erythromycin susceptible (n=11)
[12] = Haemophilus influenzae (300 isolates)
[13] = Haemophilus influenzae (n = 100)
[14] = Streptococcus pneumoniae (n = 100)
[15] = erythromycin resistant M phenotype (n = 16)
[16] = erythromycin resistant MLSB phenotype (n = 16)
[17] = penicillin intermediate (n = 16)
[18] = penicillin susceptible (n = 20)

## C[C@H]1COc2c(N3CCN(C)CC3)c(F)cc3c(=O)c(C(=O)O)cn1c23 [Levofloxacin, levofloxacin]
Streptococcus pneumoniae [1]; [8]
  MIC Range: 0.5 to 8 µg/mL
  MIC50: 1 µg/mL (≈ 2.77 µM)
  MIC90: 1 µg/mL (≈ 2.77 µM)
Streptococcus pneumoniae [1]; [9]
  MIC Range: 0.063 to 8 µg/mL
  MIC50: 1 µg/mL (≈ 2.77 µM)
  MIC90: 1 µg/mL (≈ 2.77 µM)
Streptococcus pneumoniae [1]; [10]
  MIC Range: 0.063 to 8 µg/mL
  MIC50: 1 µg/mL (≈ 2.77 µM)
  MIC90: 1 µg/mL (≈ 2.77 µM)
Streptococcus pneumoniae [1]; [11]
  MIC Range: 0.5 to 1 µg/mL
  MIC50: 1 µg/mL (≈ 2.77 µM)
  MIC90: 1 µg/mL (≈ 2.77 µM)
Streptococcus pneumoniae [1]; strain TMS1
  MIC: 1 µg/mL (≈ 2.77 µM)
Streptococcus pneumoniae [1]; strain TMS2
  MIC: 16 µg/mL (≈ 44.3 µM)
Enterobacter cloacae
  MIC50: 0.032 µg/mL (≈ 0.0886 µM)
  MIC90: 0.5 µg/mL (≈ 1.38 µM)
  MIC Range: 0.016 to 1 µg/mL
[2]
  MIC90: 1 µg/mL (≈ 2.77 µM)
Haemophilus influenzae [3]; [12]
  MIC50: ≤ 0.015 µg/mL
  MIC Range: ≤0.015 to 0.5 µg/mL
  MIC90: 0.03 µg/mL (≈ 0.083 µM)
Haemophilus influenzae [3]; β-lactamase negative (234)
  MIC90: 0.03 µg/mL (≈ 0.083 µM)
Haemophilus influenzae [3]; β-lactamase positive (66)
  MIC90: 0.03 µg/mL (≈ 0.083 µM)
Shigella spp.; 24 h, read-out: MIC (mg/L) Range
  MIC: 0.015 to 0.03 mg/L (≈ 0.0415 to 0.083 µM)
Shigella spp.; read-out: MIC (mg/L) 50%
  MIC: 0.03 mg/L (≈ 0.083 µM)
Shigella spp.; read-out: MIC (mg/L) 90%
  MIC: 0.03 mg/L (≈ 0.083 µM)
P. aeruginosa
  MIC: 2 µg/mL (≈ 5.53 µM)
Salmonella spp. [4]
  MIC50: 0.063 µg/mL (≈ 0.174 µM)
  MIC90: 0.063 µg/mL (≈ 0.174 µM)
  MIC Range: 0.032 to 0.063 µg/mL
Enterococcus faecalis
  MIC90: > 32 µg/mL
Haemophilus influenzae [5]; [13]
  MIC: 0.0075 to 0.5 µg/mL (≈ 0.0208 to 1.38 µM)
  MIC50: 0.015 µg/mL (≈ 0.0415 µM)
  MIC90: 0.03 µg/mL (≈ 0.083 µM)
Haemophilus influenzae [5]; β-lactamase negative (n = 80)
  MIC: 0.0075 to 0.5 µg/mL (≈ 0.0208 to 1.38 µM)
  MIC50: 0.015 µg/mL (≈ 0.0415 µM)
  MIC90: 0.015 µg/mL (≈ 0.0415 µM)
Haemophilus influenzae [5]; β-lactamase positive (n = 20)
  MIC: 0.0075 to 0.03 µg/mL (≈ 0.0208 to 0.083 µM)
  MIC50: 0.015 µg/mL (≈ 0.0415 µM)
  MIC90: 0.03 µg/mL (≈ 0.083 µM)
Streptococcus pneumoniae [6]; [14]
  MIC: 0.25 to 2 µg/mL (≈ 0.692 to 5.53 µM)
  MIC50: 1 µg/mL (≈ 2.77 µM)
  MIC90: 1 µg/mL (≈ 2.77 µM)
Streptococcus pneumoniae [6]; [15]
  MIC: 1 to 2 µg/mL (≈ 2.77 to 5.53 µM)
  MIC50: 1 µg/mL (≈ 2.77 µM)
  MIC90: 1 µg/mL (≈ 2.77 µM)
Streptococcus pneumoniae [6]; [16]
  MIC: 0.5 to 2 µg/mL (≈ 1.38 to 5.53 µM)
  MIC50: 1 µg/mL (≈ 2.77 µM)
  MIC90: 1 µg/mL (≈ 2.77 µM)
Streptococcus pneumoniae [6]; multi-drug resistant (n = 16)
  MIC: 0.5 to 1 µg/mL (≈ 1.38 to 2.77 µM)
  MIC50: 1 µg/mL (≈ 2.77 µM)
  MIC90: 1 µg/mL (≈ 2.77 µM)
Streptococcus pneumoniae [6]; [17]
  MIC: 0.5 to 1 µg/mL (≈ 1.38 to 2.77 µM)
  MIC50: 1 µg/mL (≈ 2.77 µM)
  MIC90: 1 µg/mL (≈ 2.77 µM)
Streptococcus pneumoniae [6]; penicillin resistant (n = 18)
  MIC: 0.5 to 2 µg/mL (≈ 1.38 to 5.53 µM)
  MIC50: 0.5 µg/mL (≈ 1.38 µM)
  MIC90: 1 µg/mL (≈ 2.77 µM)
Streptococcus pneumoniae [6]; [18]
  MIC: 0.25 to 1 µg/mL (≈ 0.692 to 2.77 µM)
  MIC50: 1 µg/mL (≈ 2.77 µM)
  MIC90: 1 µg/mL (≈ 2.77 µM)
Salmonella spp. [7]; S. hadar (n = 2)
  MIC: 1 µg/mL (≈ 2.77 µM)
Salmonella spp. [7]; S. newport (n = 1)
  MIC: 1 µg/mL (≈ 2.77 µM)
Salmonella spp. [7]; S. virchow (n = 2)
  MIC: 0.25 µg/mL (≈ 0.692 µM)
Salmonella spp. [7]; Salmonella spp. (n = 106)
  % Susceptible: 100%
  MIC50: 0.06 µg/mL (≈ 0.166 µM)
  MIC90: 0.25 µg/mL (≈ 0.692 µM)
  MIC Range: 0.06 to 1 µg/mL
Salmonella spp. [7]; Salmonella, S. tshiongwe (n = 1)
  MIC: 1 µg/mL (≈ 2.77 µM)
Moraxella catarrhalis; Moraxella catarrhalis (n = 50)
  MIC: 0.00375 to 0.03 µg/mL (≈ 0.0104 to 0.083 µM)
  MIC50: 0.015 µg/mL (≈ 0.0415 µM)
  MIC90: 0.03 µg/mL (≈ 0.083 µM)
Moraxella catarrhalis; β-lactamase negative (n = 13)
  MIC: 0.00375 to 0.03 µg/mL (≈ 0.0104 to 0.083 µM)
  MIC50: 0.03 µg/mL (≈ 0.083 µM)
  MIC90: 0.03 µg/mL (≈ 0.083 µM)
Moraxella catarrhalis; β-lactamase positive (n = 37)
  MIC: 0.00375 to 0.03 µg/mL (≈ 0.0104 to 0.083 µM)
  MIC50: 0.015 µg/mL (≈ 0.0415 µM)
  MIC90: 0.03 µg/mL (≈ 0.083 µM)

— patent EP1561465A2, “Methods of use of fluoroquinolone compounds against bacteria” (LG Life Sciences, Ltd., priority 1999, dated 2001)
